According to patent publication US12036226B2, “Methods of treating subjects having diabetes with chronic kidney disease” (Poxel SA, priority 2018, dated 2024):
Read-outs that look alike come from different tables or passages of the source.

Key:
[1] = tested on: subjects with T2DM and CKD stage 3B or 4; test: Phase 1b 28-day safety, tolerability and PK study in subjects with T2DM and CKD stage 3B or 4; assay type: in vivo
Excerpt: An Open Label, Parallel Arm Study to Assess the Safety, Tolerability, and Pharmacokinetics of Imeglimin in Subjects with Type 2 Diabetes Mellitus (T2DM) and Moderate to Severe Chronic Kidney Disease (CKD)
This Phase 1b study is to assess the safety, tolerability and pharmacokinetics (PK) of imeglimin in subjects with T2DM and CKD stage 3B or 4.
Subjects will be randomly allocated to receive one of three treatments or placebo.
Doses which are below the minimally acceptable doses are acceptable if stable for 12 weeks prior to Screening as per prescribing information. […] Primary Outcome Measures […]
Safety can be evaluated by assessment of clinical laboratory tests, physical examinations, vital signs measurements, and ECG readings at various time points during the study, and by the documentation of AEs.
The incidence of treatment-emergent adverse events (TEAE) will be summarized by treatment.
Plasma lactate will be summarized descriptively by absolute value at each visit by treatment group, together with the corresponding changes from baseline.
Pharmacokinetics (PK) data can be descriptively summarized by treatment group. PK parameters will be determined using noncompartmental methods. […] Steady-state can be evaluated using the trough concentration data.

[2] = tested on: acute renal failure (ARF) rat model; settings: for plasma glucose: normal rats
Experimental: The creatinine level, correlated with the degree of the renal function failure, was tested for each rat 7 days after the first injection of gentamicin. […] The creatinine level was determined on the Monarch Chemistry Systems using the IL Test creatinine in rat plasma samples. This monochromatic analysis is based on the formation of a red colored complex between creatinine and picric acid under alkaline conditions.

[3] = tested on: subjects with T2DM; test: 24-week Phase IIb dose-ranging placebo-controlled study in subjects with T2DM; assay type: in vivo, human; settings: for Mean HbA1c Change from Baseline: Week 24, T2D and Stage 2 and 3a CKD
Experimental: A 24-Week, Phase IIb, Dose-Ranging, Randomized, Double-blind, Placebo-controlled, Parallel-group Safety and Efficacy Study in Subjects with T2DM
The five parallel groups included 4 groups of imeglimin doses (500, 1000, 1500, or 2000 mg twice daily) and 1 placebo group. The primary endpoint was to assess the dose-response in T2D subjects, using change in HbA1c from baseline to week 24 as the primary evaluation criterion. Subjects could be either treatment naïve or treated with any oral antidiabetic monotherapy and were to have an eGFR of ≥50 mL/min/1.73 m^2. A total of 382 subjects were randomized 1:1:1:1:1 to one of the 5 study arms, with 315 subjects completing the study.

[4] = Imeglimin Total, CKD3b (n = 21)

How did the “Subjects with any study drug related TEAE: Grade 4 - Life-threatening” value ([1]; 1500 mg QD, CKD3b (n = 17)) turn out when `C[C@H]1N=C(N(C)C)N=C(N)N1` [imeglimin, (6R)—N^2, N^2,6-trimethyl-3,6-dihydro-1,3,5-triazine-2,4-diamine] was run?
Its value is 0 n, %.

What about the “Subjects with any study drug related TEAE: Grade 5 - Death” value ([1]; 1500 mg QD, CKD3b (n = 17)) of the same molecule?
The value was 0 n, %.

And the “TEAE: Gastrointestinal disorders” value ([1]; 1500 mg QD, CKD3b (n = 17))?
Its value is 3 (43%) n, %.

And the “Subjects with any TEAE” value ([1]; 1500 mg QD, CKD4 (n = 5))?
The value was 3 (60%) n, %.

And the “Subjects with any TEAE by maximum severity: Grade 1 - Mild” value (“Subjects with any TEAE … - Mild” for short) ([1]; 1500 mg QD, CKD4 (n = 5))?
Its value is 3 (60%) n, %.

And the “Subjects with any TEAE by maximum severity: Grade 2 - Moderate” value (from here on “Subjects with any TEAE … - Moderate”) ([1]; 1500 mg QD, CKD4 (n = 5))?
Its value is 0 n, %.

And the “Subjects with any TEAE by maximum severity: Grade 3 - Severe” value (from here on “Subjects with any TEAE … - Severe”) ([1]; 1500 mg QD, CKD4 (n = 5))?
The value was 0 n, %.

And the “Subjects with any TEAE by maximum severity: Grade 4 - Life-threatening” value (“Subjects with any TEAE … - Life-threatening” below) ([1]; 1500 mg QD, CKD4 (n = 5))?
Its value is 0 n, %.

What about the “Subjects with any TEAE by maximum severity: Grade 5 - Death” value (“Subjects with any TEAE … - Death” for short) ([1]; 1500 mg QD, CKD4 (n = 5)) of the same molecule?
The value was 0 n, %.

And the “Subjects with any study drug related TEAE” value ([1]; 1500 mg QD, CKD4 (n = 5))?
Its value is 2 (40%) n, %.

And the “Subjects with any study drug related TEAE: Grade 1 - Mild” value ([1]; 1500 mg QD, CKD4 (n = 5))?
Its value is 2 (40%) n, %.

And the “Subjects with any study drug related TEAE: Grade 2 - Moderate” value ([1]; 1500 mg QD, CKD4 (n = 5))?
The value was 0 n, %.

What about the “Subjects with any study drug related TEAE: Grade 3 - Severe” value ([1]; 1500 mg QD, CKD4 (n = 5)) of the same molecule?
The value was 0 n, %.

What about the “Subjects with any study drug related TEAE: Grade 4 - Life-threatening” value ([1]; 1500 mg QD, CKD4 (n = 5)) of the same molecule?
Its value is 0 n, %.

What about the “Subjects with any study drug related TEAE: Grade 5 - Death” value ([1]; 1500 mg QD, CKD4 (n = 5)) of the same molecule?
Its value is 0 n, %.

And the “TEAE: Gastrointestinal disorders” value ([1]; 1500 mg QD, CKD4 (n = 5))?
The value was 2 (40%) n, %.

And the “confirmed plasma lactate elevations” value ([1]; CKD stages 3B and 4, 28 days)?
The value was “no cases of confirmed plasma lactate elevations”.

And the lactic acidosis ([1]; CKD stages 3B and 4, 28 days)?
The lactic acidosis was “no lactic acidosis”.

What about the serious adverse events ([1]; CKD stages 3B and 4, 28 days) of the same molecule?
Its serious adverse events is “no incidence of serious adverse events”.

And the “AUC by CKD stage” value ([1]; Day 15, 1500 mg QD and 1000 mg BID treatment groups)?
The value was “increased in the T2DM with CKD stage 4 compared to CKD3B”.

What about the “Subjects with any TEAE” value [1, 4] of the same molecule?
The value was 10 (48%) n, %.

What about the “Subjects with any TEAE … - Mild” value [1, 4] of the same molecule?
The value was 6 (29%) n, %.

What about the “Subjects with any TEAE … - Moderate” value [1, 4] of the same molecule?
The value was 4 (19%) n, %.

What about the “Subjects with any TEAE … - Severe” value [1, 4] of the same molecule?
Its value is 0 n, %.

What about the “Subjects with any TEAE … - Life-threatening” value [1, 4] of the same molecule?
Its value is 0 n, %.

What about the “Subjects with any TEAE … - Death” value [1, 4] of the same molecule?
The value was 0 n, %.

What about the “Subjects with any study drug related TEAE” value [1, 4] of the same molecule?
Its value is 3 (14%) n, %.

What about the “Subjects with any study drug related TEAE: Grade 1 - Mild” value [1, 4] of the same molecule?
The value was 2 (10%) n, %.

And the “Subjects with any study drug related TEAE: Grade 2 - Moderate” value [1, 4]?
Its value is 1 (5%) n, %.

What about the “Subjects with any study drug related TEAE: Grade 3 - Severe” value [1, 4] of the same molecule?
The value was 0 n, %.

What about the “Subjects with any study drug related TEAE: Grade 4 - Life-threatening” value [1, 4] of the same molecule?
The value was 0 n, %.

What about the “Subjects with any study drug related TEAE: Grade 5 - Death” value [1, 4] of the same molecule?
Its value is 0 n, %.

What about the “TEAE: Gastrointestinal disorders” value [1, 4] of the same molecule?
The value was 5 (24%) n, %.

What about the “Subjects with any TEAE” value ([1]; Imeglimin Total, CKD4 (n = 17)) of the same molecule?
Its value is 8 (47%) n, %.

And the “Subjects with any TEAE … - Mild” value ([1]; Imeglimin Total, CKD4 (n = 17))?
Its value is 5 (29%) n, %.

And the “Subjects with any TEAE … - Moderate” value ([1]; Imeglimin Total, CKD4 (n = 17))?
Its value is 3 (18%) n, %.

And the “Subjects with any TEAE … - Severe” value ([1]; Imeglimin Total, CKD4 (n = 17))?
Its value is 0 n, %.

And the “Subjects with any TEAE … - Life-threatening” value ([1]; Imeglimin Total, CKD4 (n = 17))?
Its value is 0 n, %.

What about the “Subjects with any TEAE … - Death” value ([1]; Imeglimin Total, CKD4 (n = 17)) of the same molecule?
The value was 0 n, %.

What about the “Subjects with any study drug related TEAE” value ([1]; Imeglimin Total, CKD4 (n = 17)) of the same molecule?
The value was 3 (18%) n, %.

And the “Subjects with any study drug related TEAE: Grade 1 - Mild” value ([1]; Imeglimin Total, CKD4 (n = 17))?
The value was 3 (18%) n, %.

And the “Subjects with any study drug related TEAE: Grade 2 - Moderate” value ([1]; Imeglimin Total, CKD4 (n = 17))?
The value was 0 n, %.

And the “Subjects with any study drug related TEAE: Grade 3 - Severe” value ([1]; Imeglimin Total, CKD4 (n = 17))?
Its value is 0 n, %.

And the “Subjects with any study drug related TEAE: Grade 4 - Life-threatening” value ([1]; Imeglimin Total, CKD4 (n = 17))?
Its value is 0 n, %.

And the “Subjects with any study drug related TEAE: Grade 5 - Death” value ([1]; Imeglimin Total, CKD4 (n = 17))?
Its value is 0 n, %.

And the “TEAE: Gastrointestinal disorders” value ([1]; Imeglimin Total, CKD4 (n = 17))?
The value was 4 (24%) n, %.

What about the “maximum observed concentrations (Cmax)” value ([1]; after the morning dose on Day 15) of the same molecule?
Its value is “increased in a dose-dependent manner”.

What about the tolerability ([1]; as CKD severity increased (up to stage 4)) of the same molecule?
Its tolerability is “well tolerated”.

What about the plasma glucose ([2]; 180 minutes, imeglimin and metformin 100 mg/h/kg, phenformin 50 mg/h/kg i.v.) of the same molecule?
The plasma glucose was 5.4 ± 0.4 mmol/L.

What about the plasma glucose ([2]; i.v. perfusion 100 mg/h/kg, 60 minutes (basal 7.6±0.4)) of the same molecule?
Its plasma glucose is 6.5 ± 0.4 mmol/L.

And the “effect on plasma [HCO3−]” value ([2]; rat, in vivo)?
Its value is “significantly decreased plasma [HCO3^−]vs. basal period but not vs. control group”.

What about the “effect on plasma lactate” value ([2]; rat, in vivo) of the same molecule?
Its value is “did not significantly increase plasma lactate”.

And the “effect on plasma lactate level” value ([2]; rat, in vivo)?
The value was “did not change plasma lactate level”.

What about the “plasma H+ concentration / metabolic acidosis signs” value ([2]; rat, in vivo) of the same molecule?
The value was “Metabolic acidosis signs with imeglimin treatment were not observed”.

And the plasma accumulation ([2]; rat, in vivo)?
The plasma accumulation was “plasma accumulation of metformin and imeglimin was observed”.

What about the severe hypoglycemia ([2]; rat, in vivo) of the same molecule?
Its severe hypoglycemia is “severe hypoglycemia was not observed”.

What about the “decrease in plasma glucose” value ([2]; rats with mild or high ARF) of the same molecule?
Its value is “significant and time-dependent”.

What about the “Mean HbA1c Change from Baseline” value ([3]; 500 mg BID (n = 44)) of the same molecule?
The value was 0.007%.

What about the “Mean HbA1c Change from Baseline” value ([3]; 1000 mg BID (n = 43)) of the same molecule?
Its value is −0.072%.

What about the “Mean HbA1c Change from Baseline” value ([3]; 1500 mg BID (n = 41)) of the same molecule?
The value was −0.502%.

And the “Mean HbA1c Change from Baseline” value ([3]; 2000 mg BID (n = 42))?
Its value is −0.193%.

And the “HbA1c lowering compared to placebo” value ([3]; post-hoc analysis, stage 2 and 3a CKD (eGFR <90 mL/min/1.73 m^2, n=211))?
The value was “improvement in HbA1c lowering as compared to placebo”.
